Measurements as given in ChEMBL document CHEMBL1154845, “Neocomplanines A and B, a complanine family isolated from the marine fireworm” (J Nat Prod, 2010).
Calls of active or inactive are those of the source. No cut-off for these calls is given here.

Experiments:
[1] = Activation of PKC assessed as [gamma32P] incorporation at 2 mM after 15 mins by scintillation counting in presence of TPA
[2] = system: Mus musculus; assay: Toxicity in sc dosed mouse assessed as foot-pad swelling over 5 hrs relative to control; type: organism-based; conditions: in vivo
[3] = Activation of PKC assessed as [gamma32P] incorporation after 15 mins by scintillation counting in presence of TPA
[4] = Activation of PKC assessed as [gamma32P] incorporation at greater than 0.5 mM after 15 mins by scintillation counting in presence of Ca2+

Activity [1] [pmol/min] | Activity [3] | Activity [4] | SMILES | Activity [2]
10.9 |  |  | CC/C=C\C/C=C\CC[C@@H](O)CNC(=O)CCC[N+](C)(C)C.[I-] [COMPLANINE] | Toxic
 | Dose-dependent effect | Active | CCCCCCCC(O)CNC(=O)CCC[N+](C)(C)C.[I-] (stereo not drawn) [NEOCOMPLANINE B] | Toxic
 | Dose-dependent effect | Active | CC(C)CCCCC(O)CNC(=O)CCC[N+](C)(C)C.[I-] (stereo not drawn) [NEOCOMPLANINE A] | Toxic
